The values below come from patent US9856250B2, “Substituted tropane derivatives” (TOA EIYO LTD., priority 2014, dated 2018).

Broadly, the IC50 is the midpoint of a concentration-inhibition curve.

SMILES strings stand for the structures.

The target in the first experiment is human T-type calcium channels (human Cav3.2) (Homo sapiens (Human), UniProt O95180). Put plainly: Antagonistic activity against T-type calcium channels (Cav3.2), Fura2 intracellular calcium assay in HEK293 cells. The experiment is classed as cell-based.
Sequence of human T-type calcium channels (human Cav3.2) (O95180 whole entry): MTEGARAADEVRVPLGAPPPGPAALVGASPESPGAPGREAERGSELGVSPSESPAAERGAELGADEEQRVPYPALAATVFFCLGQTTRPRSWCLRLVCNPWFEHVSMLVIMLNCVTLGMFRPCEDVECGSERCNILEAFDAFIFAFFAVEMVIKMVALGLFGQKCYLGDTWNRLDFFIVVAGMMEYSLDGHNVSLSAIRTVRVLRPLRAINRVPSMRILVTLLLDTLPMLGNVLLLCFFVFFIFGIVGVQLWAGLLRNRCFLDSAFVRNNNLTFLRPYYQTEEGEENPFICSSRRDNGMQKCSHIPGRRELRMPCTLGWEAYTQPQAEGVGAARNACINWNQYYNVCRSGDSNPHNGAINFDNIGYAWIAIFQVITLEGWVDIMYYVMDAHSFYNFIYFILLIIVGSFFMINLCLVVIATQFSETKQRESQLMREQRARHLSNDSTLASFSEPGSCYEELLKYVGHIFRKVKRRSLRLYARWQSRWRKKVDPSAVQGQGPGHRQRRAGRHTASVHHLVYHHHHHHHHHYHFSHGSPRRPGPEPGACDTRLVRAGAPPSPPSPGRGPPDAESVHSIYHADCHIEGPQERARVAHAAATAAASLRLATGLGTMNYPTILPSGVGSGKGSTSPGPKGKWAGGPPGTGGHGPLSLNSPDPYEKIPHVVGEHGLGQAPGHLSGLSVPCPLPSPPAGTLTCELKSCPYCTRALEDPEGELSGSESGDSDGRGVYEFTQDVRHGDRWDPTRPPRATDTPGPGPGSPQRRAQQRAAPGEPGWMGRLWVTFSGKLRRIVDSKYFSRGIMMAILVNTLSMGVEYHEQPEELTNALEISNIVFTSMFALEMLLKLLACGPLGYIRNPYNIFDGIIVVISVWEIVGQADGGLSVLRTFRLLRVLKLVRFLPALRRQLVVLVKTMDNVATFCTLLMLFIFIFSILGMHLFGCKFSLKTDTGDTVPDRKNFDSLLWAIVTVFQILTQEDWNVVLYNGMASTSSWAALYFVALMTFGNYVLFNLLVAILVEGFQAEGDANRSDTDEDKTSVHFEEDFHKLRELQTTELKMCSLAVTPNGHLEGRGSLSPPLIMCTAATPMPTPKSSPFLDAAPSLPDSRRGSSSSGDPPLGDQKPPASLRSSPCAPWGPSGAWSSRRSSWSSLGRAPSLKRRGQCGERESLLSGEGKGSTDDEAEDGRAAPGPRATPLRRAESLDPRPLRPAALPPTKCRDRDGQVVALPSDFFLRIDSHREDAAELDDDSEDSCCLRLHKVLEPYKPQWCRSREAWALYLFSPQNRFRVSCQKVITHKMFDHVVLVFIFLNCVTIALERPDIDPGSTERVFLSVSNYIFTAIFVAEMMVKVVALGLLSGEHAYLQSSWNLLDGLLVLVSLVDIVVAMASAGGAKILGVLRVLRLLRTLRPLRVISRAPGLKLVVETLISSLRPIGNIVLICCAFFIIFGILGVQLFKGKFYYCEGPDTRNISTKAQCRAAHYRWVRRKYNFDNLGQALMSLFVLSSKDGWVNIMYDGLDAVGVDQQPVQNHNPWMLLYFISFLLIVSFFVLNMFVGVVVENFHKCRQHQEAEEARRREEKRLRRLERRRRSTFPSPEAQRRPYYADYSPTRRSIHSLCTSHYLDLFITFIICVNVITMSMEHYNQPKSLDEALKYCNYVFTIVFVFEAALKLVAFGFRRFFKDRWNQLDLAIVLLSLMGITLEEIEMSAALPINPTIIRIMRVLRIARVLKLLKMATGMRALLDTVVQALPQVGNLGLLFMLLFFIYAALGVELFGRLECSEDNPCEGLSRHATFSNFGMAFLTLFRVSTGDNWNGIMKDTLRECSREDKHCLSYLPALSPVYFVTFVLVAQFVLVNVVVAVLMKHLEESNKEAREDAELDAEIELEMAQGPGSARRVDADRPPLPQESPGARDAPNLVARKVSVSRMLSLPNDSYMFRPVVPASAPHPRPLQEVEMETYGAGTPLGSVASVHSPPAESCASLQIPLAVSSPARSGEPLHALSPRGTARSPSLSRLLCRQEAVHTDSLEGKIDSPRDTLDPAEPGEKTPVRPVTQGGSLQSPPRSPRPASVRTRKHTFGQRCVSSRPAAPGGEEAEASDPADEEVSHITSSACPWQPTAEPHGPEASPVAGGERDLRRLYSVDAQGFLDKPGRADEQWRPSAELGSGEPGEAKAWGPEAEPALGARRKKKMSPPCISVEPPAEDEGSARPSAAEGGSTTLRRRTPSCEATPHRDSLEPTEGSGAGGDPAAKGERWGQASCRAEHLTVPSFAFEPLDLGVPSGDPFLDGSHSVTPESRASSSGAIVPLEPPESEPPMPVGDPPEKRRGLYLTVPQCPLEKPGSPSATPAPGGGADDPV
Settings: not given
The method, then:
For representative compounds of the present invention, the antagonistic activity against T-type calcium channels (Cav3.2) was examined by the Test Examples described below. For the respective tests, human embryo kidney cells (HEK293 cells) in which human T-type calcium channels (human Cav3.2) were stably expressed were used.
The HEK293 cells having human Cav3.2 stably expressed therein were cultured at 37° C. in Alpha-MEM, to which 10% (v/v) fetal bovine serum (FBS), penicillin (100 U/mL), streptomycin (100 μg/mL), and G418 ([…]) had been added. The cells were suspended in the culture liquid and were inoculated onto a 96-well plate. Subsequently, the cells were cultured for 48 hours. The culture liquid was removed, and the liquid was changed to S-MEM, to which 5% (v/v) FBS, calcium chloride (0.5 mmol/L), L-glutamine (2 mmol/L), L-alanine (8.9 ng/mL), L-asparagine (13.2 ng/mL), L-aspartic acid (1.33 ng/mL), L-glutamic acid (14.7 ng/mL), glycine (7.5 ng/mL), L-proline (11.5 ng/mL, L-serine (10.5 ng/mL), penicillin (100 U/mL), and streptomycin (100 μg/mL) had been added. The cells were cultured for another 24 hours. The culture liquid was removed again, and the cells were washed with an assay buffer (140 mmol/L sodium chloride, 5 mmol/L potassium chloride, 0.5 mmol/L magnesium chloride, 0.5 mmol/L calcium chloride, 10 mmol/L glucose, 0.4 mmol/L magnesium sulfate, 10 mmol/L HEPES, and […] sulfinpyrazone, pH 7.4) that had been kept warm at 37° C. Subsequently, an assay buffer prepared by dissolving Fura2-AM, which is a fluorescent Ca^2+ indicator, to a concentration of 5 μM, was added to the cells, and the system was incubated for 30 minutes at 37° C. The assay buffer having Fura2 dissolved therein was removed, and the cells were washed with the assay buffer. Subsequently, an assay buffer prepared by adding a test compound was added to the cells, and the system was incubated for 15 minutes. The plate was mounted on a fluorescence analyzer (FLEX STATION II, Molecular Devices, LLC), and the baseline was measured for 20 seconds. Subsequently, any change in the intracellular calcium concentration that was induced when an assay buffer prepared by adding 100 mmol/L calcium chloride was added to the cells, was measured (excited at 340 nm or 380 nm, and detected at 510 nm). The fluorescence intensity ratios obtainable at the respective wavelengths were calculated.
Meanwhile, the test compound solution was prepared by dissolving each test compound in DMSO to a concentration of 10 mmol/L, and then adjusting the concentration with the assay buffer so as to obtain the set concentration. For the control solution, DMSO was used instead of a test compound.
The inhibitory activity level (%) of a test compound was calculated by subtracting the average value of the fluorescence intensity ratio for a period of 0 to 20 seconds after initiation of measurement, from the average value of the fluorescence intensity ratio for a period of 45 to 50 seconds after initiation of measurement, taking the value obtained using the control solution as the maximum activity of Cav3.2, and comparing this value with the activity in the presence of the test compound.
Calculation of IC50 Value:
The inhibitory activity of each test compound was measured at concentrations of […], and the IC50 value was calculated using the curve fitting formula (Model 08: sigmoidal inhibition curve) of ASSAY EXPLORER (Symyx Technologies, Inc.).
Average of RFU value obtained for 25 to 30 seconds after the addition of a […] assay buffer after treatment with the control solution (for 45 to 50 seconds after the initiation of measurement). The RFU in the formula represents the Relative Fluorescence Unit.
For orientation: Calcium assays in cells follow changes in intracellular calcium, usually with a dye or a luminescent sensor.
As for `CCn1cc(C(=O)NC[C@@H]2C[C@H]3CC[C@@H](C2)N3CC(=O)NC(C)(C)C)c2ccccc21` [Example 36], the IC50 worked out at 49 nM. On the same count and under the same terms, under `CC(C)(C)NC(=O)CN1[C@@H]2CC[C@H]1C[C@H](CNC(=O)c1ccc(Cl)cc1)C2` [Example 77] stands 22 nM; under `COc1cc(F)cc(C(=O)NC[C@@H]2C[C@H]3CC[C@@H](C2)N3CC(=O)NC(C)(C)C)c1` [Example 56], 34 nM; under `COc1cc(F)c2nc(C[C@@H]3C[C@H]4CC[C@@H](C3)N4CC(=O)NC(C)(C)C)[nH]c2c1` [Example 154], 78 nM. Still for that read-out and setting: under `CCc1oc2ccccc2c1C(=O)NC[C@@H]1C[C@H]2CC[C@@H](C1)N2CC(=O)NC(C)(C)C` [Example 84] stands 10 nM; under `CC(C)(C)NC(=O)CN1[C@@H]2CC[C@H]1C[C@H](CNC(=O)CC13CC4CC(CC(C4)C1)C3)C2` [Example 18], 73 nM.

Still in this experiment, the particulars now being: HEK293 cells stably expressing human Cav3.2; Fura2 fluorescence ratio after calcium chloride addition; read-out: IC50.
In the case of `CC(C)(C)NC(=O)CN1[C@@H]2CC[C@H]1C[C@H](CNC(=O)c1cccc3c1CCC3)C2` [Example 60], the IC50 was found to be 78 nM. `CC(C)(C)NC(=O)CN1[C@@H]2CC[C@H]1C[C@H](CC(=O)NC13CC4CC(CC(C4)C1)C3)C2` [Example 4, N-(Adamantan-1-yl)-2-[(exo)-8-(tert-butylcarbamoyl)methyl-8-azabicyclo[3.2.1]octan-3-yl]acetamide]: the IC50 was found to be 82 nM. Same read-out and setting: under `CC(C)(C)NC(=O)CN1[C@@H]2CC[C@H]1C[C@H](CNC(=O)C1C(C)(C)C1(C)C)C2` [Example 67] stands 42 nM; under `COc1cc(F)cc(NC(=O)C[C@@H]2C[C@H]3CC[C@@H](C2)N3CC(=O)NC(C)(C)C)c1` [Example 3], 69 nM. Consider `COc1cccc2[nH]c(C[C@@H]3C[C@H]4CC[C@@H](C3)N4CC(=O)NC(C)(C)C)nc12` [Example 124], for which the IC50 worked out at 96 nM. Same read-out and setting: for `CC(C)(C)NC(=O)CN1[C@@H]2CC[C@H]1C[C@H](CNC(=O)c1csc3c1CCCC3)C2` [Example 16] the value was 47 nM; for `CC1(NC(=O)CN2[C@@H]3CC[C@H]2C[C@H](CNC(=O)c2cc(F)cc(Cl)c2)C3)CC1` [Example 115], 63 nM; for `CC(C)(C)CNC(=O)C[C@H]1C[C@H]2CC[C@@H](C1)N2CC(=O)NC(C)(C)C` [Example 127, 2-[(endo)-8-(tert-Butylcarbamoyl)methyl-8-azabicyclo[3.2.1]octan-3-yl]-N-(2,2-dimethylpropyl) acetamide], 73 nM. The same measure, in the same setting: for `CC(C)(C)NC(=O)CN1[C@@H]2CC[C@H]1C[C@H](CNC(=O)c1ccc(F)cc1)C2` [Example 78] the value was 44 nM; for `CC(C)(C)NC(=O)CN1[C@@H]2CC[C@H]1C[C@@H](CC(=O)NC13CC4CC(CC1C4)C3)C2` [Example 131], 49 nM; for `CC(C)(C)NC(=O)CN1[C@@H]2CC[C@H]1C[C@H](CNC(=O)C13CC4CC(CC(C4)C1)C3)C2` [Example 65], 99 nM. On the same count and under the same terms, for `Cc1ccc(C(=O)NC[C@@H]2C[C@H]3CC[C@@H](C2)N3CC(=O)NC(C)(C)C)s1` [Example 81] the value was 93 nM; for `CC(C)(C)NC(=O)CN1[C@@H]2CC[C@H]1C[C@H](CNC(=O)C(C)(C)Oc1ccccc1)C2` [Example 28], 65 nM. For the compound `Cn1cc(C(=O)NC[C@@H]2C[C@H]3CC[C@@H](C2)N3CC(=O)NC(C)(C)C)c2cc(Cl)ccc21` [Example 100, N-[(exo)-8-(tert-Butylcarbamoyl)methyl-8-azabicyclo[3.2.1]octan-3-yl]methyl-5-chloro-1-methyl-1H-indole-3-carboxamide], the IC50 was found to be 85 nM. The same measure, in the same setting: for `COc1ccc2[nH]c(C[C@@H]3C[C@H]4CC[C@@H](C3)N4CC(=O)NC(C)(C)C)nc2c1OC` [Example 122] the value was 138 nM. Regarding `CC(C)(C)NC(=O)CN1[C@@H]2CC[C@H]1C[C@@H](CNC(=O)C13CC4CC(CC(C4)C1)C3)C2` [Example 144, N-[(endo)-8-(tert-Butylcarbamoyl)methyl-8-azabicyclo[3.2.1]octan-3-yl]methyladamantane-1-carboxamide], the IC50 amounted to 44 nM.
